Reference: BindingDB's records for doi:10.1016/s0960-894x(02)00995-2 (The Oxford Centre For Molecular Sciences and The Dyson …, 2003)

Molecular target: T1, Chymotrypsin-like elastase family member 2A (Sus scrofa, UniProt P08419)
T1 sequence (P08419 whole entry): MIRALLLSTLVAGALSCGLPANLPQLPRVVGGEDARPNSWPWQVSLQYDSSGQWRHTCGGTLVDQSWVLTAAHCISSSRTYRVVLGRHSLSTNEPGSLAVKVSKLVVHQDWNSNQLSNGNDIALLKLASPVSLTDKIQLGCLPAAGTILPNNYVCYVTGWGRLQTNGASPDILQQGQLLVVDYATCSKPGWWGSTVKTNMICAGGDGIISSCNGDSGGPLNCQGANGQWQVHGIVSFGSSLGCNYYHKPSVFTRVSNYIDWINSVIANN
Assay: ChEBML_152310
Source text: Inhibitory concentration against porcine pancreatic elastase (PPE)

Question: How did the IC50 turn out when `Cc1ccc(S(=O)(=O)N2CCN(Cc3ccccc3)C(=O)[C@@H]2CC(C)C)cc1` [(S)-1-Benzyl-3-isobutyl-4-(toluene-4-sulfonyl)-piperazin-2-one] was run?
Answer: 62 µM

Question: For `CC(C)C[C@H]1C(=O)N(Cc2ccccc2)CCN1S(C)(=O)=O` [(S)-1-Benzyl-3-isobutyl-4-methanesulfonyl-piperazin-2-one], which IC50 is on record?
Answer: 2000 µM

Question: `CC(C)C[C@H]1C(=O)N(S(C)(=O)=O)CCN1C(=O)OC(C)(C)C` [(S)-2-Isobutyl-4-methanesulfonyl-3-oxo-piperazine-1-carboxylic acid tert-butyl ester] was tested. Which IC50 did it give?
Answer: 923 µM

Question: How did the IC50 turn out when `CCC(C)[C@H]1C(=O)N(S(=O)(=O)c2ccc(C)cc2)CCN1C(=O)OC(C)(C)C` (stereo partly drawn) [(S)-2-sec-Butyl-3-oxo-4-(toluene-4-sulfonyl)-piperazine-1-carboxylic acid tert-butyl ester] was run?
Answer: 293 µM
